Source: patent US10106536B2, “Imidazo(4,5-B) pyridin-2-yl amides as KV7 channel activators” (Knopp Biosciences LLC, priority 2013, dated 2018)

Target: T1, Kv7.2/7.3 (Homo sapiens, UniProt O43525+O43526)
T1 construct: host or cells: HEK cells, tetracycline-inducible expression
Assay: Kv7.2/7.3 activation assay, QPatch planar patch-clamp, single concentration screen
Assay type: cell-based
Conditions: compound 3 μM; Kv7.2/Kv7.3 co-expressing HEK cells; steady-state current at end of 1 s pulse to −30 mV
Description: Kv7.2/7.3 Activation Assay
The ability of compounds to potentiate K-currents in KV7.2/7.3 containing HEK cells was assessed using planar patch-clamp on the QPatch automated screening platform.
The hKV7.2/7.3 cell line was obtained from Chantest (Cleveland, Ohio 44128) cat.# CT6147. These HEK cells will express the Kv7.2/7.3 ion channels when induced.
Cell Culture: Cells were maintained in a media containing DMEM/F12; 50/50 (GIBCO cat.#11330), 10% Fetal Bovine Serum (FBS) (GIBCO cat.#26140), 100 units/mL Penicillin-Streptomycin (GIBCO cat.#15140), 0.005 mg/mL Blasticidin (INVIVOGEN cat.# ant-bl-1), 0.5 mg/mL Geneticin (GIBCO cat.#10131), 0.1 mg/mL Zeocin (GIBCO cat.# R25001). Cells used in the electrophysiology assay were maintained in a media without Blasticidin, Geneticin and Zeocin for 2 days and channel expression was induced by adding tetracycline (BIOLINE cat.# BIO-87030) at a final concentration of […]. Cells were grown in T-175 flask to ˜75% confluency. Currents were recorded 24 hours after channel induction.
Test compounds were prepared by performing serial dilutions on a Biomek NX^P (BECKMAN COULTER). Final dilutions were made in external recording solution with a final DMSO concentration of 0.1% DMSO. For single concentration screens each plate had 10 μM retigabine as a positive control and 0.1% DMSO as a negative control.
On the day of the experiment cells were washed with Hank's Balanced Salt Solution (HBBS) (GIBCO cat.#14175) and harvested with Tryple (GIBCO cat.#12604). Cells were then centrifuged at 2000 rpm for 5 minutes and resuspended in CHO-S-SFM (GIBCO cat.#12052) at ˜3×10^6 cells/mL. Cells were stirred for 30 minutes before experiments were started. External recording solution contained (in mM): NaCl (145), KCl (4), CaCl2 (2), MgCl2 (1), HEPES (10) and Glucose (10); pH was adjusted to 7.4 with NaOH and the osmolarity was adjusted to 300-305 mOsM with sucrose if necessary. Internal solution contained (in mM): KCl (125), KF (10), EGTA (5), Na2ATP (5), MgCl2 (3.2), HEPES (5); pH was adjusted to 7.2 with KOH and the osmolarity was adjusted to 298-302 mOsM with sucrose.
Potassium channel activity was measured on the QPatch HTX (Sophion Bioscience) using QPlates with 48-wells/plate. Each cell was taken as an independent experiment and only one compound was tested per well. Potassium channel activity was elicited by holding at −80 mV and stepping to −30 mV for 1 s followed by a 100 ms pulse to −120 mV.
Baseline conditions were obtained by recording 5 sweeps in the external solution only, this was repeated for three applications of the external solution. The effect of test compounds on elicited current was then assessed by recording 5 sweeps in the presence of a 3 μM or 10 μM compound solution. The steady-state current at the end of the 1 s pulse to −30 mV was measured to determine the fold increase from baseline.

SMILES	Kv7.2/7.3 Activity at 3 μM (increase in current over baseline)
CC(C)(C)CC(=O)Nc1nc2ccc(-c3cccnc3)nc2n1C1CCC1.Cl [Example 151, N-(3-cyclobutyl-5-(pyridin-3-yl)-3H-imidazo[4,5-b]pyridin-2-yl)-3,3-dimethylbutanamide hydrochloride]	− (<1.2-fold increase over baseline (−))
O=C(Cc1ccc(F)cc1)Nc1nc2cc(Cl)cnc2n1C1CCC1 [Example 58, N-(6-chloro-3-cyclobutyl-3H-imidazo[4,5-b]pyridin-2-yl)-2-(4-fluorophenyl)acetamide]	− (<1.2-fold increase over baseline (−))
CC1(C)[C@H]2CC[C@@H](CC(=O)Nc3nc4cccnc4n3C3CCC3)[C@@H]1C2 [Example 24, N-(3-cyclobutyl-3H-imidazo[4,5-b]pyridin-2-yl)-2-((1S,2S,5S)-6,6-dimethylbicyclo[3.1.1]heptan-2-yl)acetamide]	+++ (>6-fold increase over baseline (+++))
CC(C)(C)OCCC(=O)Nc1nc2ccc(C3CC3)nc2n1CC(F)(F)F [Example 108, 3-(tert-butoxy)-N-(5-cyclopropyl-3-(2,2,2-trifluoroethyl)-3H-imidazo[4,5-b]pyridin-2-yl)propanamide]	+++ (>6-fold increase over baseline (+++))
O=C(CCC1(C(F)(F)F)CC1)Nc1nc2ccc(Cl)nc2n1C1CCC1 [Example 223, N-(5-chloro-3-cyclobutyl-3H-imidazo[4,5-b]pyridin-2-yl)-3-(1-(trifluoromethyl)cyclopropyl)propanamide]	− (<1.2-fold increase over baseline (−))
O=C(CC(C(F)(F)F)C(F)(F)F)Nc1nc2ccc(Cl)nc2n1C1CCC1 [Example 6, N-(5-chloro-3-cyclobutyl-3H-imidazo[4,5-b]pyridin-2-yl)-4,4,4-trifluoro-3-(trifluoromethyl)butanamide]	− (<1.2-fold increase over baseline (−))

Same assay, conditions: compound 10 μM; Kv7.2/Kv7.3 co-expressing HEK cells; steady-state current at end of 1 s pulse to −30 mV

SMILES	Kv7.2/7.3 Activity at 10 μM (increase in current over baseline)
O=C(CCC1CCOC1)Nc1nc2ccc(C(F)(F)F)nc2n1C1CCC1 (centres unmarked) [Example 124, N-(3-cyclobutyl-5-(trifluoromethyl)-3H-imidazo[4,5-b]pyridin-2-yl)-3-(tetrahydrofuran-3-yl)propanamide]	+++ (>6-fold increase over baseline (+++))
CC(C)CC(=O)Nc1nc2ccc(Cl)nc2n1C1CCC1 [Example 28, N-(5-chloro-3-cyclobutyl-3H-imidazo[4,5-b]pyridin-2-yl)-3-methylbutanamide]	+++ (>6-fold increase over baseline (+++))
CC(C)Oc1ccc2nc(NC(=O)CCOC(C)(C)C)n(CC(F)(F)F)c2n1 [Example 120, 3-(tert-butoxy)-N-(5-isopropoxy-3-(2,2,2-trifluoroethyl)-3H-imidazo[4,5-b]pyridin-2-yl)propanamide]	+++ (>6-fold increase over baseline (+++))
O=C(CC1CCCCC1)Nc1nc2ccc(Cl)nc2n1C1CCC1 [Example 29, N-(5-chloro-3-cyclobutyl-3H-imidazo[4,5-b]pyridin-2-yl)-2-cyclohexylacetamide]	+++ (>6-fold increase over baseline (+++))
O=C(CCOC1CCCC1)Nc1nc2ccc(C(F)(F)F)nc2n1C1CCC1 [Example 91, N-(3-cyclobutyl-5-(trifluoromethyl)-3H-imidazo[4,5-b]pyridin-2-yl)-3-(cyclopentyloxy)propanamide]	+++ (>6-fold increase over baseline (+++))
CC(C)Cn1c(NC(=O)CC(C)(C)C)nc2ccc(Cl)nc21 [Example 36, N-(5-chloro-3-isobutyl-3H-imidazo[4,5-b]pyridin-2-yl)-3,3-dimethylbutanamide]	+++ (>6-fold increase over baseline (+++))
CC(C)(C)CC(=O)Nc1nc2ccc(Cl)nc2n1-c1ccc(F)cc1 [Example 105, N-(5-chloro-3-(4-fluorophenyl)-3H-imidazo[4,5-b]pyridin-2-yl)-3,3-dimethylbutanamide]	+++ (>6-fold increase over baseline (+++))
CC(C)CC(=O)Nc1nc2ccc(C(F)(F)F)nc2n1C1CCC1 [Example 42, N-(3-cyclobutyl-5-(trifluoromethyl)-3H-imidazo[4,5-b]pyridin-2-yl)-3-methylbutanamide]	+++ (>6-fold increase over baseline (+++))
O=C(CC1CC2CCC1C2)Nc1nc2ccc(Cl)nc2n1C1CCC1 (centres unmarked) [Example 9, 2-(bicyclo[2.2.1]heptan-2-yl)-N-(5-chloro-3-cyclobutyl-3H-imidazo[4,5-b]pyridin-2-yl)acetamide]	+++ (>6-fold increase over baseline (+++))
CC1(C)[C@H]2CC[C@@H](CC(=O)Nc3nc4ccc(Cl)nc4n3C3CCC3)[C@@H]1C2 [Example 33, N-(5-chloro-3-cyclobutyl-3H-imidazo[4,5-b]pyridin-2-yl)-2-((1S,2S,5S)-6,6-dimethylbicyclo[3.1.1]heptan-2-yl)acetamide]	+++ (>6-fold increase over baseline (+++))
CC1(C)CCC(CC(=O)Nc2nc3ccc(C(F)(F)F)nc3n2C2CCC2)O1 (centres unmarked) [Example 96, N-(3-cyclobutyl-5-(trifluoromethyl)-3H-imidazo[4,5-b]pyridin-2-yl)-2-(5,5-dimethyltetrahydrofuran-2-yl)acetamide]	+++ (>6-fold increase over baseline (+++))
CCOCC(=O)Nc1nc2ccc(Cl)nc2n1C1CCC1 [Example 34, N-(5-chloro-3-cyclobutyl-3H-imidazo[4,5-b]pyridin-2-yl)-2-ethoxyacetamide]	− (<1.2-fold increase over baseline (−))
CC1(C)[C@H]2CC[C@@H](CC(=O)Nc3nc4cccnc4n3C3CCC3)[C@@H]1C2 [Example 24, N-(3-cyclobutyl-3H-imidazo[4,5-b]pyridin-2-yl)-2-((1S,2S,5S)-6,6-dimethylbicyclo[3.1.1]heptan-2-yl)acetamide]	+++ (>6-fold increase over baseline (+++))
Cc1ccc2nc(NC(=O)CCOC(C)(C)C)n(CC(F)(F)F)c2n1 [Example 132, 3-(tert-butoxy)-N-(5-methyl-3-(2,2,2-trifluoroethyl)-3H-imidazo[4,5-b]pyridin-2-yl)propanamide]	+++ (>6-fold increase over baseline (+++))
O=C(CCC1CCCC1)Nc1nc2ccc(Cl)nc2n1C1CCC1 [Example 27, N-(5-chloro-3-cyclobutyl-3H-imidazo[4,5-b]pyridin-2-yl)-3-cyclopentylpropanamide]	+++ (>6-fold increase over baseline (+++))
CC(C)(C)CC(=O)Nc1nc2ccc(C(F)(F)F)nc2n1C1CCC1 [Example 39, N-(3-cyclobutyl-5-(trifluoromethyl)-3H-imidazo[4,5-b]pyridin-2-yl)-3,3-dimethylbutanamide]	+++ (>6-fold increase over baseline (+++))
CC1(C)[C@H]2CC[C@@H](CC(=O)Nc3nc4ccc(C(F)(F)F)nc4n3C3CCC3)[C@@H]1C2 [Example 47, N-(3-cyclobutyl-5-(trifluoromethyl)-3H-imidazo[4,5-b]pyridin-2-yl)-2-((1S,2S,5S)-6,6-dimethylbicyclo[3.1.1]heptan-2-yl)acetamide]	+++ (>6-fold increase over baseline (+++))
O=C(CC1CCCCC1)Nc1nc2ccc(C(F)(F)F)nc2n1C1CCC1 [Example 43, N-(3-cyclobutyl-5-(trifluoromethyl)-3H-imidazo[4,5-b]pyridin-2-yl)-2-cyclohexylacetamide]	+++ (>6-fold increase over baseline (+++))
CC(C)(C)OCCC(=O)Nc1nc2cccnc2n1C1CCC1 [Example 3, 3-(tert-butoxy)-N-(3-cyclobutyl-3H-imidazo[4,5-b]pyridin-2-yl)propanamide]	+++ (>6-fold increase over baseline (+++))
O=C(CCc1ccccc1)Nc1nc2ccc(Cl)nc2n1C1CCC1 [Example 35, N-(5-chloro-3-cyclobutyl-3H-imidazo[4,5-b]pyridin-2-yl)-3-phenylpropanamide]	+++ (>6-fold increase over baseline (+++))
